Where two headings read alike, the source gives them in different places.
Columns and labels:
B16F10 murine melanoma = assay: B16F10 murine melanoma, combination with TMZ; type: in vivo, C57BL/6 mice; conditions: A-861695 25, 12.5 or 3.1 mg/kg/day p.o. b.i.d. + TMZ 62.5 mg/kg/day p.o. q.d. X5; FIG. 2
Description: This study was done on mice with B 16F10 murine melanoma. Mice were divided into six treatment groups with 8-10 mice per group. See figure two for treatment groups. B16F10 cells were injected s.c. into C57BL/6 mice on day 0. Dosing was initiated on day one. A-861695 was administered p.o., b.i.d. on days 1-14. On days 3-7 temozolomide (TMZ) was administered p.o., q.d. (for the groups receiving both TMZ and A-861695, TMZ was given two hours after the A-861695 was administered).

[1] = system: MX-1 breast carcinoma xenograft; assay: MX-1 breast carcinoma xenograft, combination with carboplatin; type: in vivo, scid mice
Description: This cell line was derived from a person with a poorly differentiated mammary carcinoma.
Data presented in FIG. 4 are mean ±S.E.M. of 8-10 mice per treatment group.

[2] = system: MX-1 breast carcinoma xenograft; assay: MX-1 breast carcinoma xenograft, combination with cisplatin; type: in vivo, nude mice; conditions: FIG. 5
Description: In this study the efficacy of A-861695 in combination with cisplatin was evaluated in the MX-1 breast carcinoma xenograft model in nude mice. Tumors were size-matched to 100 mm^3 on day 16 and PARP inhibitor therapy (p.o., b.i.d. x8) was initiated the same day. A single dose of cisplatin at 6.0 mg/kg/day was administered i.p. day 18. Data, shown in FIG. 5, are mean ±S.E.M. of 9 mice per treatment group.

[3] = system: HSB T-cell ALL; JM1 pre-B ALL; P115 primary AML cells; assay: TMZ and ABT-888 combinations in leukemia cells (FIGS. 9-11); conditions: differing amounts of TMZ and ABT-888
[4] = system: DoHH-2 flank tumor xenograft; conditions: for efficacy at reducing the Mean Tumor Volume, alone: single agent
Description: Animals were size matched on day 15 to an approximate tumor volume of 503 mm^3.
Group mouse weights were recorded three times a week to monitor for weight loss due to toxicity or excessive tumor burden.

[5] = system: MDA-231-LN-luc cells in the brain striatum; conditions: for survival to 300% tumor change endpoint: Kaplan-Meier, Logrank, FIG. 23
MX-1 flank xenograft = conditions: TMZ at 50 and 12.5 mg/kg/day
Description: All mice were ear tagged. […] At various intervals following tumor cell inoculation, the individual tumor dimensions were serially measured using calibrated microcalipers and the tumor volumes calculated according to the formula V=L×W^2/2 (V:volume, L:length, W:width). Mice were humanely euthanized when the tumor volumes reached a predetermined size.

[6] = molecular target: T1, Recombinant Human Poly(ADP-Ribose) Polymerase (PARP) (Homo sapiens, UniProt P09874); assay: PARP1 inhibition assay ([3H]-NAD+, biotinylated histone H1, FlashPlate/SPA); type: biochemical; conditions: from inhibition curves at various substrate concentrations
T1 construct: purchased Trevigen, Gaithersburg, Md; host or cells: E. coli
T1 sequence (P09874 whole entry): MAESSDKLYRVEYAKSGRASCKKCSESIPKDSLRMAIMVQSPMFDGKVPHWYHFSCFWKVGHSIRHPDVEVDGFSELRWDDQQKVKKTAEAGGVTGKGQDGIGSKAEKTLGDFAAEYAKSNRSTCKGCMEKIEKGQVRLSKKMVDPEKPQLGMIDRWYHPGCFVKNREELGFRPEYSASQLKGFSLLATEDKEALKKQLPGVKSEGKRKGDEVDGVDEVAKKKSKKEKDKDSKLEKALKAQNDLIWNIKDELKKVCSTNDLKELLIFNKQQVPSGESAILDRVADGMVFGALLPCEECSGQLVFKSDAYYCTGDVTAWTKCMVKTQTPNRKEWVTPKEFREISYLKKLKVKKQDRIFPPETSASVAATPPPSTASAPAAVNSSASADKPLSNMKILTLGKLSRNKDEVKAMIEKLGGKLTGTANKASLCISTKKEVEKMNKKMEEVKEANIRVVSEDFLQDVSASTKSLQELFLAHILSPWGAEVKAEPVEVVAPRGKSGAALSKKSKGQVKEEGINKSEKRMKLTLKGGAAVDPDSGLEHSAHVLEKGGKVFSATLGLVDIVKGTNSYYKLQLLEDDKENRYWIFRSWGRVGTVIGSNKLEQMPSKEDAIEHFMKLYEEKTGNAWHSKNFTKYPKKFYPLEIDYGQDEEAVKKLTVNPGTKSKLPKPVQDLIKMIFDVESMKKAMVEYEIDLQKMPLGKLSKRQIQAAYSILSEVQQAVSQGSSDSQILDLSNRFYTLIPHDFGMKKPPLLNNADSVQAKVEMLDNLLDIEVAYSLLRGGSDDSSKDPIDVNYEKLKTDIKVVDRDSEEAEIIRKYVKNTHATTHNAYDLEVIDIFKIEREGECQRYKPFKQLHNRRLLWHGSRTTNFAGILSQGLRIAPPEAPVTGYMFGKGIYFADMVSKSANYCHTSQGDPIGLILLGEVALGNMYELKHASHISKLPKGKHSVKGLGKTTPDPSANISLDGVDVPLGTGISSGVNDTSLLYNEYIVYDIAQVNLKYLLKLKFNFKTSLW
Description: Nicotinamide[2,5′,8-3H]adenine dinucleotide and strepavidin SPA beads were purchased from Amersham Biosiences (UK) Recombinant Human Poly(ADP-Ribose) Polymerase (PARP) purified from E. coli and 6-Biotin-17-NAD^+, were purchase from Trevigen, Gaithersburg, Md. NAD^+, Histone, aminobenzamide, 3-amino benzamide and Calf Thymus DNA (dcDNA) were purchased from Sigma, St. Louis, Mo. […] Biotinylated histone H1 was prepared by treating the protein with Sulfo-NHS-LC-Biotin from Pierce Rockford, Ill. […] Streptavidin coated (FlashPlate Plus) microplates were purchased from Perkin Elmer, Boston, Mass.
PARP1 assay was conducted in PARP assay buffer containing 50 mM Tris pH 8.0, 1 mM DTT, 4 mM MgCl2. […] 170 μl of the stopped reaction mixtures were transferred to streptavidin Flash Plates, incubated for 1 hr, and counted using a TopCount microplate scintillation counter.

HCT-116 tumors = HCT-116 tumors in nude mice, combination with radiotherapy; type: in vivo; conditions: combination with radiotherapy (2 Gy/day, 10 doses) vs radiotherapy or compound alone; 6.25, 12.5 or 25 mg/kg/day i.p. OMPs 14 days; FIG. 1
Description: This study was done in nude mice bearing HCT-116 tumors in the leg. Three days (−3) prior to the beginning of radiotherapy, mice were implanted i.p with OMPs delivering A-620223 at 0, 6.25, 12.5, or 25 mg/kg/day for 14 days. Starting day 0 mice received radiation treatment (2 Gy/day) for 10 doses alone or in combination with the 3 different doses of 2-(N-propylpiperidin-4-yl)benzimidazole-4-carboxamide.

[7] = system: PC3M-Luc human prostate carcinoma; assay: Orthotopic PC3M-Luc human prostate carcinoma model (BLI); type: in vivo, male SCID-C.B17 mice; conditions: vs vehicles, p<0.01
Description: Bioluminescent PC-3M-luciferase-C6 osteolytic human prostate cancer cells, constitutively expressing luciferase (Caliper Life Sciences, Hopkinton, Mass.) were orthotopically injected into the prostates of 10-week-old male SCID-C.B17 mice (C.B-17/IcrCrl-scid-BR, Charles River Labs). Mice were housed in a facility with constant humidity, temperature and a 12-h light-dark cycle. Mice were anesthetized with intramuscular injections of ketamine (40 mg/kg) and rompum (5 mg/kg) before surgery. The surgical region was shaved and sterilized with iodine and alcohol swabs. A lower midline incision was made to access the prostate. The left lobe of the dorsal prostate was injected with 1×10^6 PC3M-Luc cells (975 photon/second/cell) in 30 μl (1:1 matrigel, Collaborative Biomedical Products, Bedford, Mass.). The peritoneal cavity was closed with 4-0 suture and skin incision was closed with clip.
In vivo bioluminescent image (BLI) was performed with an IVIS® Imaging System (Caliper Life Sciences, Hopkinton, Mass.). […] Images and measurements of bioluminescent signals were acquired and analyzed using Living Image® software (Caliper Life Sciences, Hopkinton, Mass.). Uniform region of interests (ROIs) were used across all groups and time points to achieve quantification of bioluminescent signal. […] The mice were then monitored with this system at weekly intervals. […]

[8] = Valproic acid and radiotherapy (FIG. 6)

Structure (SMILES): C[C@]1(c2nc3c(C(N)=O)cccc3[nH]2)CCCN1 [ABT-888, 2-[(2R)-2-methylpyrrolidin-2-yl]-1H-benzimidazole-4-carboxamide]
- potentiation of TMZ efficacy (B16F10 murine melanoma): significantly potentates the TMZ efficacy in a dose dependent manner
- potentiation of carboplatin (tumor volumes) ([1]; A-861695 25 mg/kg/day s.c. OMPs 14 days + carboplatin 10 and 15 mg/kg/day): pronounced potentiation of carboplatin
- potentiation of cisplatin activity [2]: pronounced potentiation of cisplatin activity
- effect on toxicity of TMZ [3]: enhancement of toxicity of TMZ
- blood brain barrier crossing (rat, in vivo): crosses the blood brain barrier
- effect of co-administration of TMZ on plasma PK profile (tumor-bearing rats): did not alter the plasma PK profile
- Observations (toxicity assessment) ([4]; Scid female mice, same dosing): None
- efficacy at reducing the Mean Tumor Volume, alone [4]: no efficacy
- survival to 300% tumor change endpoint [5]: profoundly improved survival compared to TMZ treatment alone
- effect on toxicity of TMZ (% mean body weight loss) (MX-1 flank xenograft): did not exacerbate the toxicity of TMZ

Structure (SMILES): N.N.O=C([O-])C1(C(=O)[O-])CCC1.[Pt+2] [carboplatin]
- tumor inhibition as a single agent ([1]; carboplatin 5, 10, 15 mg/kg/day i.p. day 20, 24, 27, FIG. 4): dose-dependent tumor inhibition
- tumor volume course, monotherapy ([1]; carboplatin monotherapy 10 mg/kg/day): only delayed tumor growth

Structure (SMILES): CCCN1CCC(c2nc3cccc(C(N)=O)c3[nH]2)CC1 [2-(N-propylpiperidin-4-yl)benzimidazole-4-carboxamide]
- Ki [6]: 8.6 nM
- reduction of tumor size (HCT-116 tumors): significant improvement in the reduction of tumor size

Structure (SMILES): Cn1nnc2c(C(N)=O)ncn2c1=O [TMZ, temozolomide]
- efficacy after first treatment schedule (day 30) [7]: significantly better than their vehicles
- Observations (toxicity assessment) ([4]; female, Scid, mouse, in vivo): Slight
- efficacy at reducing the Mean Tumor Volume, alone [4]: no efficacy
- survival to 300% tumor change endpoint [5]: significantly increased survival
- Weight loss (Observations) ([5]; after last dose of 2nd cycle): > 10% after last
- Mortality ([5]; dead/total mice): 0/11

Structure (SMILES): CCCC(CCC)C(=O)O [valproic acid]
- effect on radiotherapy [8]: can enhance the effects of radiotherapy

Structure (SMILES): NC(=O)c1cccc2[nH]c(C3CCN(CC4CC4)C3)nc12 (stereo not drawn) [2-[1-(cyclopropylmethyl)pyrrolidin-3-yl]-1H-benzimidazole-4-carboxamide]
- Ki [6]: 5.2 nM

Structure (SMILES): CCCN1CCC(C)(c2nc3c(C(N)=O)cccc3[nH]2)C1 (stereo not drawn) [2-(3-methyl-1-propylpyrrolidin-3-yl)-1H-benzimidazole-4-carboxamide]
- Ki [6]: 4.2 nM

Structure (SMILES): NC(=O)c1cccc2[nH]c(C3CCN3C3CCCCC3)nc12 (stereo not drawn) [2-(1-cyclohexylazetidin-2-yl)-1H-benzimidazole-4-carboxamide]
- Ki [6]: 245 nM

Source: patent US20080293795A1, “COMBINATION THERAPY WITH PARP INHIBITORS” (ABBOTT LABORATORIES, priority 2006, published 2008)
